Test results published in patent publication US12398157B2, “Energy-efficient solvent-free method for producing metal chelates” (TECHNISCHE UNIVERSITAT CLAUSTHAL, priority 2017, dated 2025).

Experiment: particle size distribution by laser light scattering
Format: physicochemical
Conditions: volumetric, product of working example 1
From the text: The product is obtained in a particularly finely divided form with a narrow particle size distribution. The latter can, for example, be seen from the ratio of the D values, D99, D90, D50, (D10). The D value indicates the percentage of particles smaller than the diameter given as the respective D value. The percentage is given as index, i.e.: D90= . . . means “90% of the particles have a (volumetrically determined) diameter of less than . . . ”. The associated data are obtained by means of laser light scattering.
The particle size distribution of the zinc bisglycinate produced as described in working example 1 and shown in FIG. 2a was examined more closely by means of laser light scattering. The results are shown in graph form in FIG. 2c.

## NCC(=O)[O-].NCC(=O)[O-].[Zn+2] [zinc bisglycinate, bis(glycinato-N,O)zinc]
  D10 (10% of the particles have diameters of less than): 0.86 μm
  D50 (50% of the particles have diameters of less than): 3.41 μm
  D90 (90% of the particles have diameters of less than): 6.82 μm
  D99 (99% of the particles have diameters of less than): 10.00 μm
